Assay results taken from patent US12281363B2, “Methods for detecting antiviral-drug resistant virus” (Secretary of State for Health and Social Care, priority 2018, dated 2025).
Like-named read-outs stand apart in the source and are kept apart here.

Tested on: HSV-2
Assay: Plaque reduction assay, HSV-2 clinical isolates on Vero cells
Type: cell-based
Conditions: for IC50: Human alphaherpesvirus 2, Vero
Source text: Viral isolates were used to infect a sub-confluent monolayer of Vero cells at a concentration of 75 or 50 plaque forming units (PFU) per well for HSV-1 and HSV-2, respectively. […] CMC medium typically used to create a semisolid interface and prevents indiscrimate viral spreading. Other materials (e.g. agar) may also be used to create this interface.
Cells were fixed with 10% formalin and stained with crystal violet before enumeration of the plaques (microscopic observation or use of fluorescent antibodies for detection is also suitable). The data obtained from these experiments were then expressed as percent inhibition of viral infectivity relative to the no drug control.
Definitions of phenotypic drug susceptibility classification as sensitive or resistant were as follows: ACV, <3 μM or >40 μM; PCV, <10 μM or >40 μM; CDV, <24 μM or >30 μM; FOS, <250 μM or >400 μM; and ACV, <6.5 μM or >40 μM; PCV, <38 μM or >40 μM; FOS, <250 μM or >400 μM for HSV-1 and HSV-2, respectively. Any IC50 values falling in between these sensitive and resistant cut-offs were reported as intermediate resistance.
The phenotype (i.e. reactivity to a drug) of the virus was characterised by the plaque reduction assay as described above. The present inventors have characterised the resistance-causing phenotype of a large number of TK and DNA pol mutations.

Nc1nc2c(ncn2COCCO)c(=O)[nH]1 [Aciclovir, acyclovir]
12.1 µM: IC50 (isolate HPG023, HSV-2 TK Q186H (558G>T), read-out: Drug susceptibility (IC50 value))
10.2 µM: IC50 (isolate HPG017, HSV-2 TK Q186H (558G>T), read-out: Drug susceptibility (IC50 value))
28.6 µM: IC50 (isolate HPG007, HSV-2 pol R628G (1882C>G), read-out: Drug susceptibility (IC50 value))
1.53 µM: IC50 (isolate HPG001, HSV-2 TK A125T (373G>A), read-out: Drug susceptibility (IC50 value)) | IC50 (isolate HPG001, HSV-2 pol H714R (2141A>G), read-out: Drug susceptibility (IC50 value))
6.5 to 40 µM: IC50 (read-out: Drug susceptibility Aciclovir (ACV), isolate HPG007, HSV-2 pol R628G (1882C>G)) | IC50 (read-out: Drug susceptibility Aciclovir (ACV), isolate HPG017, HSV-2 TK Q186H (558G>T)) | IC50 (read-out: Drug susceptibility Aciclovir (ACV), isolate HPG023, HSV-2 TK Q186H (558G>T)) | IC50 (read-out: Drug susceptibility Aciclovir (ACV), isolate HPG034, HSV-2 TK L313S (938A>C)) | IC50 (read-out: Drug susceptibility Aciclovir (ACV), isolate HPG058, HSV-2 TK 183stop or P154fs (458delC, 459delC, 460delC, or 461delC))
2.04 µM: IC50 (isolate HPG038, HSV-2 TK R34C (100C>T), read-out: Drug susceptibility (IC50 value))
4.46 µM: IC50 (isolate HPG022, HSV-2 TK E213D (639A>C), read-out: Drug susceptibility (IC50 value)) | IC50 (isolate HPG022, HSV-2 pol D174Y (520G>T), read-out: Drug susceptibility (IC50 value))
2.5 µM: IC50 (isolate HPG024, HSV-2 TK E213D (639A>C), read-out: Drug susceptibility (IC50 value))
36.2 µM: IC50 (isolate HPG058, HSV-2 TK 183stop or P154fs (458delC, 459delC, 460delC, or 461delC), read-out: Drug susceptibility (IC50 value))
35.8 µM: IC50 (read-out: Drug susceptibility (IC50 value), isolate HPG034, HSV-2 TK L313S (938A>C))
1.56 µM: IC50 (read-out: Drug susceptibility (IC50 value), isolate HPG056, HSV-2 pol M447L (1339A>C))
weak/intermediate resistance: Level of resistance (HSV-2 DNA pol R628G (18820>G))
> 40 µM: IC50 (isolate HPG004, HSV-2 pol M494T (1481T>C), also pol S729N, read-out: Drug susceptibility (IC50 value)) | IC50 (isolate HPG028, HSV-2 TK 98stop or A94fs (276delG, 278delG, 279delG, or 280delG), read-out: Drug susceptibility (IC50 value)) | IC50 (isolate HPG028, HSV-2 pol E776Q (2326G>C), also TK deletion (G) nt 276-280, read-out: Drug susceptibility (IC50 value)) | IC50 (isolate HPG028, HSV-2 pol R775C, R775W (2323C>T; 2325C>G), also TK deletion (G) nt 276-280, read-out: Drug susceptibility (IC50 value)) | IC50 (isolate HPG030, HSV-2 TK Q90stop (268C>T), read-out: Drug susceptibility (IC50 value)) | IC50 (isolate HPG030, HSV-2 pol E761K (2281G>A), also TK Q90stop, read-out: Drug susceptibility (IC50 value)) | IC50 (isolate HPG036, HSV-2 TK E84K (250G>A), read-out: Drug susceptibility (IC50 value)) | IC50 (isolate HPG044, HSV-2 TK M86L (256A>C), read-out: Drug susceptibility (IC50 value)) | IC50 (isolate HPG048, HSV-2 TK Q90stop (268C>T), read-out: Drug susceptibility (IC50 value)) | IC50 (isolate HPG048, HSV-2 pol E761K (2281G>A), also TK Q90stop, read-out: Drug susceptibility (IC50 value)) | IC50 (isolate HPG057, HSV-2 TK 98stop or A94fs (276delG, 278delG, 279delG, or 280delG), read-out: Drug susceptibility (IC50 value)) | IC50 (read-out: Drug susceptibility Aciclovir (ACV), isolate HPG004, HSV-2 pol M494T (1481T>C), also pol S729N) | IC50 (read-out: Drug susceptibility Aciclovir (ACV), isolate HPG028, HSV-2 TK 98stop or A94fs (276delG, 278delG, 279delG, or 280delG)) | IC50 (read-out: Drug susceptibility Aciclovir (ACV), isolate HPG028, HSV-2 pol E776Q (2326G>C), also TK deletion (G) nt 276-280) | IC50 (read-out: Drug susceptibility Aciclovir (ACV), isolate HPG028, HSV-2 pol R775C, R775W (2323C>T; 2325C>G), also TK deletion (G) nt 276-280) | IC50 (read-out: Drug susceptibility Aciclovir (ACV), isolate HPG030, HSV-2 TK Q90stop (268C>T)) | IC50 (read-out: Drug susceptibility Aciclovir (ACV), isolate HPG030, HSV-2 pol E761K (2281G>A), also TK Q90stop) | IC50 (read-out: Drug susceptibility Aciclovir (ACV), isolate HPG036, HSV-2 TK E84K (250G>A)) | IC50 (read-out: Drug susceptibility Aciclovir (ACV), isolate HPG044, HSV-2 TK M86L (256A>C)) | IC50 (read-out: Drug susceptibility Aciclovir (ACV), isolate HPG048, HSV-2 TK Q90stop (268C>T)) | IC50 (read-out: Drug susceptibility Aciclovir (ACV), isolate HPG048, HSV-2 pol E761K (2281G>A), also TK Q90stop) | IC50 (read-out: Drug susceptibility Aciclovir (ACV), isolate HPG057, HSV-2 TK 98stop or A94fs (276delG, 278delG, 279delG, or 280delG))
< 6.5 µM: IC50 (read-out: Drug susceptibility Aciclovir (ACV), isolate HPG001, HSV-2 TK A125T (373G>A)) | IC50 (read-out: Drug susceptibility Aciclovir (ACV), isolate HPG001, HSV-2 pol H714R (2141A>G)) | IC50 (read-out: Drug susceptibility Aciclovir (ACV), isolate HPG022, HSV-2 TK E213D (639A>C)) | IC50 (read-out: Drug susceptibility Aciclovir (ACV), isolate HPG022, HSV-2 pol D174Y (520G>T)) | IC50 (read-out: Drug susceptibility Aciclovir (ACV), isolate HPG024, HSV-2 TK E213D (639A>C)) | IC50 (read-out: Drug susceptibility Aciclovir (ACV), isolate HPG038, HSV-2 TK R34C (100C>T)) | IC50 (read-out: Drug susceptibility Aciclovir (ACV), isolate HPG056, HSV-2 pol M447L (1339A>C))
